The source of these data is patent US7326384B2, “Method and apparatus for detecting physicochemical changes emitted by biological sample” (Matsushita Electric Industrial Co., Ltd., priority 2001, dated 2008).

The subject of assay [1] is ion channel of a Lymnaea stagnail neuron. In words: Extracellular recording of neuron electrical signal at increasing Carbachol concentrations (apparatus of FIG. 8). It is filed as cell-based. The conditions noted are these: Carbachol 0, 0.1, 0.3, 1, 3, 10, 30 and 100 μM; 10 seconds time-series data; FIG. 12. An excerpt: FIG. 8 is a conceptual diagram showing a configuration of an apparatus comprising the above-described device for detecting physicochemical changes emitted by a biological sample, which is configured to measure and extract the ion channel activity of the biological sample. The apparatus comprises a measurement section (signal source) 101 comprising a device for detecting physicochemical changes emitted by the biological sample and measuring an action potential generated by a neuron, a unit standard deviation calculation section 102 for sampling a signal from the measurement section 101 and calculating the standard deviation of the signal, an average calculation section 105 for calculating the average of the obtained standard deviation, an activity calculation section 108 for calculating the ion channel activity of a cell from the average of the standard deviation output by the average calculation section 105, and a data displaying section 110 for displaying the calculated activity. Communications between each section are indicated by a dashed line or a solid line in FIG. 8. Note that the unit standard deviation calculation section 102, and the average calculation section 105, and the activity calculation section 108 may be representatively software programs which are recorded in a hard disk in a computer. The data displaying section 110 may be a CRT. […]

The test system is the same in assay [2]. In words: Extracellular recording of neuron before and after applying Carbachol, normal distribution of standard deviations (apparatus of FIG. 9). The conditions noted are these: after applying 50 μM Carbachol; 10 seconds data; FIG. 13. It is filed as cell-based. An excerpt:
FIG. 9 is a conceptual diagram showing a configuration of an apparatus comprising the above-described device for detecting physicochemical changes emitted by a biological sample, which is configured to measure and extract the ion channel activity of the biological sample. The apparatus is the same as the apparatus of FIG. 8, except that the normal distribution approximation section 103, the average/half-width calculation section 106 and the activity categorization section 109 are employed in place of the average calculation section 105 and the activity calculation section 108. Communications between each section are indicated by a dashed line or a solid line in FIG. 9. […]
Before and after 50 μM-concentration Carbachol is applied to a Lymnaea stagnail neuron, signals were obtained from the measurement section (signal source) 101, and the standard deviation of the signals was calculated in a manner similar to that of Example 1. […]

Consider `C[N+](C)(C)CCOC(N)=O` [Carbachol], for which the “ion channel activation (average of the standard deviation every 100 miliseconds)” value in assay [1] is on record as “activated depending on the Carbachol concentration”. Moreover, the “average of the normal distribution of standard deviation values every 5 miliseconds” value in assay [2] was found to be 0.703.
